Experimental data as given in patent US11110303B2, “Hapten-enhanced chemoimmunotherapy by ultra-minimum incision personalized intratumoral chemoimmunotherapy” (priority 2014, dated 2021).
Read-outs that look alike come from different tables or passages of the source.

- drug retention in tumor (12 hours after intratumoral injection): 16%
- retention rate of Ara-C in tumor (24 hours after intratumoral injection): 0%
- retention rate of Ara-C in tumor (fifteen minutes after intratumoral injection): 100%
- retention rate of Ara-C in tumor (four hours after intratumoral injection): 16%
SMILES: Nc1ccn([C@@H]2O[C@H](CO)[C@@H](O)[C@@H]2O)c(=O)n1 [Ara-C alone, Cytosine Arabinoside]
